Measured values as given in ChEMBL document CHEMBL4145658, “Modulators of the Cystic Fibrosis Transmembrane Conductance Regulator Protein” (ACS Med Chem Lett, 2018).

Experiments:
Format in all cases: cell-based
[1] = system: Cystic fibrosis transmembrane conductance regulator (Homo sapiens), P13569 [F508del]; test: Corrector activity at HRP-fused CFTR F508del mutant (unknown origin) expressed in human CFBE41o cells assessed as increase in matured protein levels at cell surface at 20 uM after 18 to 24 hrs by luminescence assay relative to 3-[(2R,4R)-4-({[l-(2,2-difluoro-l,3-benzodioxol-5-yl)cyclopropyl]carbonyl}amino)-7-methoxy-3,4-dihydro-2H-chromen-2-yl]benzoic acid
[2] = molecular target: T1, Cystic fibrosis transmembrane conductance regulator (Homo sapiens, UniProt P13569, F508DEL); test: Corrector activity at HRP-fused CFTR F508del mutant (unknown origin) expressed in human CFBE41o cells assessed as increase in matured protein levels at cell surface after 18 to 24 hrs by luminescence assay
[3] = system: Cystic fibrosis transmembrane conductance regulator (Homo sapiens), P13569 [F508del]; test: (§1) Corrector activity at HRP-fused CFTR F508del mutant (unknown origin) expressed in human CFBE41o cells assessed as increase in matured protein levels at cell surface at 20 uM after 18 to 24 hrs in presence of co-corrector 3-[(2R,4R)-4-({[l-(2,2-difluoro-l,3-benzodioxol-5-yl)cyclopropyl]carbonyl}amino)-7-methoxy-3,4-dihydro-2H-chromen-2-yl]benzoic acid by luminescence assay relative to co-corrector
[4] = molecular target: T1, Cystic fibrosis transmembrane conductance regulator; test: as §1, with “surface” for “surface at 20 uM”, “assay” for “assay relative to co-corrector”

Sequence of Cystic fibrosis transmembrane conductance regulator (Homo sapiens), P13569 [F508del] (P13569 as listed by the source): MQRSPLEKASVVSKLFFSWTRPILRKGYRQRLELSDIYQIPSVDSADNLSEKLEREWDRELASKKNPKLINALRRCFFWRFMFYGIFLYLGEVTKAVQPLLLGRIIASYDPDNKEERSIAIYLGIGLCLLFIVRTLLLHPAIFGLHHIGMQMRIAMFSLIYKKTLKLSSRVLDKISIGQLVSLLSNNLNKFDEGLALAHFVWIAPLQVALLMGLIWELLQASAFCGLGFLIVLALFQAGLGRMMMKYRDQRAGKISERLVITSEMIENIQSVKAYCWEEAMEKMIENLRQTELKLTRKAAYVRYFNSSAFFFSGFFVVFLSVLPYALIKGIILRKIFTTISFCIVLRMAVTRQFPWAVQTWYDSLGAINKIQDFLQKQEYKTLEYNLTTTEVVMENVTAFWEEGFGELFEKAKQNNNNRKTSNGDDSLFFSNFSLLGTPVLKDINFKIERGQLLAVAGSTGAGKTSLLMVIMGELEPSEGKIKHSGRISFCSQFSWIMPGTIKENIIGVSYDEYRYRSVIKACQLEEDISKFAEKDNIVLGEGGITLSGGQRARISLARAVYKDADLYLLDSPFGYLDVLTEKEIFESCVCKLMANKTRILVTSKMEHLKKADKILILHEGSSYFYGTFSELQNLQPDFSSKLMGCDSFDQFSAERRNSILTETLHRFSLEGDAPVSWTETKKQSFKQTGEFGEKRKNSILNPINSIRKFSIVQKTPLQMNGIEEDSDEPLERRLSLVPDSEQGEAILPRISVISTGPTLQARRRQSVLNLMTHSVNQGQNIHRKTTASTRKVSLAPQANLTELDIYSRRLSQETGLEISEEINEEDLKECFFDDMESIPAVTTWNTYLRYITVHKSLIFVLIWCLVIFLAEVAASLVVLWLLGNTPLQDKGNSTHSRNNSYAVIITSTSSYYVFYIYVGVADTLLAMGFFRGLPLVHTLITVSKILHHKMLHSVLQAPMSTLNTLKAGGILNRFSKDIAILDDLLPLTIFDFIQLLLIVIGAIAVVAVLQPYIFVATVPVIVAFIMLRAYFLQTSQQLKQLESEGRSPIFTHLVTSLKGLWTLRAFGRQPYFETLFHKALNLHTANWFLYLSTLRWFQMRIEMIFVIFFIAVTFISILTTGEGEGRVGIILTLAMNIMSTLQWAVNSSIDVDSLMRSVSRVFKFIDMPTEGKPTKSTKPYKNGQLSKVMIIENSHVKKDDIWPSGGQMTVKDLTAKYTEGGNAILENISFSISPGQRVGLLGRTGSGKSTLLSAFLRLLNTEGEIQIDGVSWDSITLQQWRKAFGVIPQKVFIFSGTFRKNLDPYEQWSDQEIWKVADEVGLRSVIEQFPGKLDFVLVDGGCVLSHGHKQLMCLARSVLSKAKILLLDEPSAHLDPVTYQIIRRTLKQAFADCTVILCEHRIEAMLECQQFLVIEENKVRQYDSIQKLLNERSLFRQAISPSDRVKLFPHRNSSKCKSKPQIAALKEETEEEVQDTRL
T1 sequence (P13569 as listed by the source): as above

%max [1] | EC50 [2] | %max [3] | EC50 [4] | Structure (SMILES)
> 200% | < 1000 nM | > 350% | < 1000 nM | COc1ccc(C2(C)CCC2)cc1CN[C@H]1[C@H](C(C)(C)C)[C@@H](C(=O)O)N(C(=O)[C@@H]2CCCCO2)[C@H]1c1ccccc1C
> 200% | 1000 to 10000 nM | > 350% | 1000 to 10000 nM | COc1ncc(C(C)C)cc1CN[C@H]1[C@H](C(C)(C)OC)[C@@H](C(=O)O)N(C(=O)C2CCCCC2)[C@H]1c1ccccc1
> 200% | < 1000 nM | > 350% | < 1000 nM | COc1ncc(C2CCC2)cc1CN[C@H]1[C@H](C(C)(C)C)[C@@H](C(=O)O)N(C(=O)C2CCCCC2)[C@H]1c1ccccc1C
> 200% | < 1000 nM | > 350% | < 1000 nM | COc1ccc(C(C)(C)C)cc1CN[C@H]1[C@H](C(C)(C)C)[C@@H](C(=O)O)N(C(=O)C2CCCCC2)[C@H]1c1cccnc1N(C)C
> 200% | < 1000 nM | > 350% | < 1000 nM | COc1ccc(-c2cccc(F)c2F)cc1CN[C@H]1[C@H](C(C)(C)C)[C@@H](C(=O)O)N(C(=O)C2CCCCC2)[C@H]1c1ccccc1
100 to 200% | < 1000 nM | > 350% | < 1000 nM | COc1cc2c(cc1CN[C@H]1[C@H](C(C)(C)C)[C@@H](C(=O)O)N(C(=O)C3CCCCC3)[C@H]1c1ccccc1)C(C)(C)CCC2(C)C
> 200% | < 1000 nM | > 350% | < 1000 nM | CC(C)c1ccccc1[C@H]1[C@@H](NCc2cccc3c2OC(C)(C)C3)[C@H](C(C)(C)C)[C@@H](C(=O)O)N1C(=O)[C@@H]1CCCCO1
> 200% | < 1000 nM | > 350% | < 1000 nM | COc1ccc(C(C)(C)C)cc1CN[C@H]1[C@H](C(C)(C)C)[C@@H](C(=O)O)N(C(=O)[C@@H]2Cc3ccccc3O2)[C@H]1c1ccccc1

Structure (SMILES) | %max [1] | EC50 [2] | %max [3] | EC50 [4]
COc1ccc([Si](C)(C)C)cc1CN[C@H]1[C@H](C(C)(C)C)[C@@H](C(=O)O)N(C(=O)C2CCCCC2)[C@H]1c1ccccc1 | > 200% | < 1000 nM | > 350% | < 1000 nM
